Assay results from patent publication US12409209B2, “Biological function regulating agent, epidermal metabolism promoting agent, fat accumulation inhibiting agent, fat decomposition promoting agent, adiponectin production promoting agent, functional food, cosmetic product, and method for producing biological function regulating agent” (NITTA GELATIN INC., priority 2020, dated 2025).

What was measured:
[1] = test system: fat cells differentiated from mouse-derived precursor fat cells (3T3-L1); experiment: Third test: fat accumulation in fat cells (Oil Red O, OD 520 nm); assay type: cell-based; conditions: positive control, final conc. 2 μg/mL; 3T3-L1 5 passages, 9 PDL; average of three
Description: Specifically, the third test was conducted in accordance with the following procedure. The mouse-derived precursor fat cells (manufactured by Research Resources Bank, Resource No. JCRB 9014, Lot No. 01282009) were precultured in a culture medium (DMEM/F12 medium (passage culture, catalog No: “11330-032”, manufactured by Gibco Company, containing 10 mass % FBS, penicillin and streptomycin). Subsequently, from the medium and the cells subjected to the preculture, a cell suspension liquid containing the cells at 3×10^4 cells/mL was prepared. Further, 5 mL of the cell suspension liquid was seeded in each of 60 mm dishes (catalog No: Corning, Cat. No. 430166) (1.5×10^5 cells/dish), and cultured for 2 days under the condition of 37° C. (5 vol % CO2). […] 200 μL of the extraction liquid was transferred to a 96-well plate, and the absorbance at OD 520 nm was measured with an absorption spectrometer (trade name: “Synergy HTX” manufactured by Biotech Japan Corporation). It is evaluated that the higher the value of the absorbance at OD 520 nm, the more likely the fat accumulation is to occur in fat cells. […] The fat accumulation ratio in fat cells containing each sample, the berberine chloride solution or RO water was determined in accordance with the following calculation expression. […]

[2] = test system: fat cells differentiated from mouse-derived precursor fat cells (3T3-L1); experiment: Eleventh test: fat accumulation in fat cells (Oil Red O); assay type: cell-based; conditions: positive control, final conc. 2 ug/mL; 3T3-L1 7 passages, 13 PDL
Description: The mouse-derived precursor fat cells (manufactured by Research Resources Bank, Resource No. JCRB 9014, Lot No. 01282009) were precultured in a culture medium (DMEM/F12 medium (passage culture, catalog No: “11330-032”, manufactured by Gibco Company, containing 10 mass % FBS, penicillin and streptomycin). Subsequently, from the medium and the cells subjected to the preculture, a cell suspension liquid containing the cells at 3×10^4 cells/mL was prepared. Further, 5 mL of the cell suspension liquid was seeded in each of 60 mm dishes (catalog No: Corning, Cat. No. 430166) (1.5×10^5 cells/dish), and cultured for 2 days under the condition of 37° C. (5 vol % CO2). […] 200 μL of the extraction liquid was transferred to a 96-well plate, and the absorbance at OD 520 nm was measured with an absorption spectrometer (trade name: “Synergy HTX” manufactured by Biotech Japan Corporation). It is evaluated that the higher the value of the absorbance at OD 520 nm, the more likely the fat accumulation is to occur in fat cells. […] The fat accumulation ratio in fat cells containing each sample, the berberine chloride solution or RO water was determined in accordance with the following calculation expression. Fat accumulation ratio (%)=[(measured value at OD 520 nm for each sample)/(measured value at OD 520 nm for blank)×100] […]

COc1ccc2cc3[n+](cc2c1OC)CCc1cc2c(cc1-3)OCO2 [Berberine chloride, berberine chloride]
Fat accumulation ratio, Ave (Blank = 100) [1]: 37% | Fat accumulation ratio, Ave (Blank = 100) [2]: 60%
